Earlier results as cited in PubChem BioAssay AID1259410 (Chemical Carcinogenesis Research Information System (CCRIS), 2018).

Test system: rodent tumor promotion studies, tumor incidence
Assay: CCRIS tumor promotion studies
[1] = Carcinogen: 7,12-DIMETHYLBENZ(A)ANTHRACENE, Doses [Carcinogen]: TOP, Route [Carcinogen]: DERMAL, Route [Promoter]: DERMAL, Species: MOUSE, Strain/Sex: FEMALE

For `Cc1cc(O)c2c(c1)Cc1cccc(O)c1C2=O`, which outcome (Carcinogen: 7,12-DIMETHYLBENZ(A)ANTHRACENE, Doses [Carcinogen]: 10 NMOL ONCE, Doses [Promoter]: 50 UG 2/WK FOR 21 WK, Route [Carcinogen]: DERMAL, Route [Promoter]: DERMAL, Species: MOUSE, Strain/Sex: SENCAR/FEMALE) is on record?
Its outcome is “integumentary system (skin): papilloma”.

And the outcome (Carcinogen: 7,12-DIMETHYLBENZ[A]ANTHRACENE, 57-97-6, Doses [Carcinogen]: 6.4 UG ONCE, Doses [Promoter]: 0, 52.8 UG 1/WK FOR 10 WK BEGINNING 2 WK POST CARCINOGEN DOSE (STUDY DURATION: 32 WK), Route [Carcinogen]: DERMAL, Route [Promoter]: DERMAL, Species: MOUSE, Strain/Sex: SENCAR/FEMALE)?
The outcome was “skin: papilloma”.

With `C=C[C@@]1(C)CC[C@](C)(C(C)C)c2cc3c4c(c[nH]c4c21)C[C@@H](CO)NC(=O)[C@H](C(C)C)N3C` as the compound, how does the outcome (Carcinogen: 7,12-DIMETHYLBENZ[A]ANTHRACENE, 57-97-6, Doses [Carcinogen]: 100 UG ONCE, Doses [Promoter]: 0, 5.5 NMOL 2/WK FOR 19 WK BEGINNING 1 WK POST CARCINOGEN DOSE (STUDY DURATION: 20 WK), Route [Carcinogen]: DERMAL, Route [Promoter]: DERMAL, Species: MOUSE, Strain/Sex: CD-1/FEMALE) read?
The outcome was “skin: tumor”.

And the outcome (Carcinogen: 7,12-DIMETHYLBENZ[A]ANTHRACENE, Doses [Carcinogen]: 100 UG ONCE, Doses [Promoter]: 2.5 UG IN ACETONE 2/WK FOR 30 WK, Route [Carcinogen]: DERMAL, Route [Promoter]: DERMAL, Species: MOUSE, Strain/Sex: CD-1/FEMALE)?
The outcome was “integumentary system (skin): papilloma, carcinoma”.

With `Cc1cccc(C)c1N` as the compound, how does the outcome (Carcinogen: N-BIS(2-HYDROXYPROPYL)NITROSAMINE) [53609-64-6], Doses [Carcinogen]: 2400 MG/KG BW ONCE (STUDY DURATION: 53 WK), Doses [Promoter]: 3000 PPM IN DIET FOR 52 WK BEGINNING 1 WK POST LAST CARCINOGEN DOSE (STUDY DURATION: 53 WK), Route [Carcinogen]: SUBCUTANEOUS, Route [Promoter]: ORAL, Species: RAT, Strain/Sex: F344/MALE) read?
Its outcome is “nasal cavity: carcinoma”.

For `OCl`, which outcome (Carcinogen: 4-NITROQUINOLINE-1-OXIDE, Doses [Carcinogen]: TOP, Route [Carcinogen]: DERMAL, Route [Promoter]: DERMAL, Species: MOUSE, Strain/Sex: FEMALE) is on record?
Its outcome is “integumentary system (skin)”.

Which outcome (Carcinogen: N-METHYL-N-NITROSOUREA, 684-93-5, Doses [Carcinogen]: 1 MG/100 G BW INJECTED INTO LEFT UTERINE TUBE ONCE, Doses [Promoter]: 0, 25 PPM IN DIET BEGINNING 1 WK POST CARCINOGEN TREATMENT (STUDY DURATION: 30 WK), Route [Carcinogen]: INJECTION, Route [Promoter]: ORAL, Species: MOUSE, Strain/Sex: ICR/FEMALE) does the source give for `C[C@]12CC[C@@H]3c4ccc(O)cc4CC[C@H]3[C@@H]1CCC2=O` here?
The outcome was “uterus (left): adenocarcinoma”.

For `CCOC(=O)C#Cc1ccccc1`, which outcome (Carcinogen: 7,12-DIMETHYLBENZ[A]ANTHRACENE, 57-97-6, Doses [Carcinogen]: 10 NMOL (2.5 UG IN 200 µL ACETONE), Doses [Promoter]: 5 MG 2/WK FOR 40 WK BEGINNING 2 WK POST CARCINOGEN TREATMENT (STUDY DURATION: 42 WK), Route [Carcinogen]: DERMAL, Route [Promoter]: DERMAL, Species: MOUSE, Strain/Sex: SENCAR/FEMALE) is on record?
Its outcome is “skin: tumor”.

And the outcome (Carcinogen: 7,12-DIMETHYLBENZ[A]ANTHRACENE, 57-97-6, Doses [Carcinogen]: 100 NMOL, Doses [Promoter]: 3, 5 MG 2/WK FOR 40 WK BEGINNING 2 WK POST CARCINOGEN TREATMENT (STUDY DURATION: 42 WK), Route [Carcinogen]: DERMAL, Route [Promoter]: DERMAL, Species: MOUSE, Strain/Sex: SENCAR/FEMALE)?
Its outcome is “skin: tumor”.

With `Nc1nc2ncc(CNc3ccc(C(=O)N[C@@H](CCC(=O)O)C(=O)O)cc3)nc2c(=O)[nH]1` as the compound, how does the outcome (Carcinogen: N-ETHYL-N-(2-HYDROXYETHYL)NITROSAMINE, Doses [Carcinogen]: 0.1% IN DRINKING WATER FOR 1 WK, Doses [Promoter]: 300 MG/KG 1/WK FOR 8 WK THEN 100 MG/KG 1/WK FOR 27 WK, Route [Carcinogen]: ORAL, Route [Promoter]: SUBCUTANEOUS, Species: RAT, Strain/Sex: F344/MALE) read?
The outcome was “kidney: renal cell tumor”.

For `C=CC1CC=CCC1` (stereo unspecified), which outcome (Carcinogen: 7,12-Dimethylbenz(a)anthracene, 57-97-6, Doses [Carcinogen]: 100 ug once in sesame oil, administered 4 mo after vinylcyclohexene diepoxide dosing, Doses [Promoter]: 160 mg/kg bw for 25 days, administered daily in sesame oil, study duration 3 or 5 months, Route [Carcinogen]: Directly on ovary, Route [Promoter]: Intraperitoneal, Species: Rat, Strain/Sex: Fischer 344/Female) is on record?
The outcome was “ovary: tumors (non-neoplastic cystic ovaries also observed)”.

Which outcome (Carcinogen: DIMETHYLBENZ[A]ANTHRACENE, 57-97-6, Doses [Carcinogen]: 100 UG IN 100 µL ACETONE APPLIED TO THE BACK ONCE, Doses [Promoter]: 5 UG IN 100 ML ACETONE APPLIED TO THE BACK 2/WK FOR 15 WK BEGINNING 1 WK POST CARCINOGEN DOSE THEN 10 UG 2/WK FOR 15 WK, Route [Carcinogen]: DERMAL, Route [Promoter]: DERMAL, Species: MOUSE, Strain/Sex: CD-1/FEMALE) does the source give for `C=CC(C)(C)c1ccc2c3c(c[nH]c13)C[C@@H](CO)NC(=O)[C@H](C(C)C)N2C` here?
The outcome was “skin: papilloma”.

For `CCCCCCCCCCCC(=O)OC[C@@H](O)[C@H]1OC[C@H](O)[C@H]1O`, which outcome (Carcinogen: 7,12-DIMETHYLBENZ(A)ANTHRACENE, Doses [Carcinogen]: TOP, Route [Carcinogen]: DERMAL, Route [Promoter]: DERMAL, Species: MOUSE, Strain/Sex: MALE) is on record?
Its outcome is “integumentary system (skin)”.

With `CC(=O)OC/C=C(C)/C=C/C=C(C)/C=C/C1=C(C)CCCC1(C)C` as the compound, how does the outcome (Carcinogen: 3'-METHYL-4-DIMETHYLAMINOAZOBENZENE, 55-80-1, Doses [Carcinogen]: 0.06% IN DIET FOR 7 WK, Doses [Promoter]: 0, 6.25, 12.5, 25 MG 1/5 D FOR 10 WK ADMINISTERED 3 WK POST CARCINOGEN (STUDY DURATION: 25 WK), Doses [Promoter]: 0, 6.25, 12.5, 25 MG 1/5 D FOR 10 WK ADMINISTERED 3 WK POST CARCINOGEN (STUDY DURATION: 25 WK), Route [Carcinogen]: ORAL, Route [Promoter]: INTRAPERITONEAL, Species: RAT, Strain/Sex: DONRYU/MALE) read?
Its outcome is “liver: hepatocellular carcinoma”.

With `Oc1ccccc1Cl` as the compound, how does the outcome [1] read?
The outcome was “integumentary system (skin)”.

Which outcome (Carcinogen: AZOXYMETHANE, 25843-45-2, Doses [Carcinogen]: 7.4 MG/KG BW IN 0.9% SALINE 1/WK FOR 10 WK, Doses [Promoter]: 0, 4 NMOL/KG BW IN OLIVE OIL 1/2 D FOR DURATION OF STUDY (STUDY DURATION: 35 WK), Route [Carcinogen]: SUBCUTANEOUS, Route [Promoter]: SUBCUTANEOUS, Species: RAT, Strain/Sex: WISTAR/MALE, FEMALE) does the source give for H-HADGVFTSDYSRLLGQLSAKKYLESLI-NH2 here?
The outcome was “colon: tumor”.

For `CC1=C2C(=CO[C@H](C)[C@H]2C)C(=O)C(C(=O)O)=C1O`, which outcome (Carcinogen: OCHRATOXIN A, 303-47-9, Doses [Carcinogen]: 0.25 ML OF A 50 PPM SOLUTION 2/WK FOR 20 WK, Doses [Promoter]: 0, 0.25 ML OF 50 PPM SOLUTION 2/WK FOR 20 WK ADMINISTERED SIMULTANEOUSLY WITH CARCINOGEN TREATMENT (STUDY DURATION: 20 W, Route [Carcinogen]: GAVAGE, Route [Promoter]: GAVAGE, Species: MOUSE, Strain/Sex: ALBINO/MALE,FEMALE) is on record?
Its outcome is “kidney: tumor”.

What about the outcome (Carcinogen: OCHRATOXIN A, 303-47-9, Doses [Carcinogen]: 0.25 ML OF A 50 PPM SOLUTION 2/WK FOR 20 WK, Doses [Promoter]: 0, 0.25 ML OF A 50 PPM SOLUTION ADMINISTERED SIMULTANEOUSLY WITH CARCINOGEN DOSE 2/WK FOR 20 WK (STUDY DURATION: 20 WK), Route [Carcinogen]: GAVAGE, Route [Promoter]: GAVAGE, Species: MOUSE, Strain/Sex: SWISS/MALE,FEMALE) of the same compound?
Its outcome is “kidney: tumor”.

With `CC(=O)O` as the compound, how does the outcome (Carcinogen: LEAD SUBACETATE, 1335-32-6, Doses [Carcinogen]: 1% IN DIET FOR 18 MO, Doses [Promoter]: 0, 0.3, 1, 3, 6% IN DIET FOR 18 MO (STUDY DURATION: 79 WK), Doses [Promoter]: 0, 0.3, 1, 3, 6% IN DIET FOR 18 MO (STUDY DURATION: 79 WK), Route [Carcinogen]: ORAL, Route [Promoter]: ORAL, Species: RAT, Strain/Sex: SPRAGUE-DAWLEY/MALE) read?
The outcome was “kidney: tumor”.

For `Cc1cc(=O)n(-c2ccccc2)n1C`, which outcome (Carcinogen: DIHYDROXY-DI-N-PROPYLNITROSAMINE, 53609-64-6, URACIL, 66-22-8, Carcinogen: DIHYDROXY-DI-N-PROPYLNITROSAMINE, 53609-64-6, URACIL, 66-22-8, Doses [Carcinogen]: 1% DHPN IN DRINKING WATER AND 3% URACIL IN DIET FOR 4 WK, Doses [Promoter]: 0, 1% IN DIET BEGINNING 1 WK POST CARCINOGEN TREATMENT AND CONTINUING FOR 35 WK (STUDY DURATION: 40 WK), Route [Carcinogen]: ORAL, ORAL, Route [Promoter]: ORAL, Species: RAT, Strain/Sex: F344/MALE) is on record?
Its outcome is “kidney: adenoma or adenocarcinoma”.

With `Oc1ccc(Br)cc1` as the compound, how does the outcome [1] read?
Its outcome is “integumentary system (skin)”.
